Source: PubChem BioAssay (NCI)
Values joined by “and” are separate entries in the source; they are usually repeats but may differ in a detail not shown here. Identical values can stand only once.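 96-well plates; 48 h exposure; 5 concentrations. Endpoints by linear interpolation between flanking doses. Not reached: highest tested concentration assigned. The concentration for 50% growth inhibition is given as GI50. TGI marks complete inhibition of growth.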

Key:
Experiment in all cases: NCI anticancer screen, dose series, 48 h
[1] = system: HCC-2998 colon
[2] = system: HOP-92 NSCLC
[3] = system: K-562 leukemia
[4] = system: MDA-MB-231 breast
[5] = system: OVCAR-5 ovarian
[6] = system: PC-3 prostate
[7] = system: SF-268 CNS
[8] = system: SK-MEL-2 melanoma
[9] = system: SK-MEL-28 melanoma
[10] = system: SN12C renal
[11] = system: SR leukemia
[12] = system: T-47D breast
[13] = system: UACC-257 melanoma

SMILES | TGI [1] [µM] | TGI [2] [µM] | TGI [3] [µM] | TGI [4] [µM] | TGI [5] [µM] | TGI [6] [µM] | TGI [7] [µM] | TGI [8] [µM] | TGI [9] [µM] | TGI [10] [µM] | TGI [11] [µM] | TGI [12] [µM] | TGI [13] [µM] | GI50 [3] | GI50 [7] | GI50 [8] [µM] | GI50 [9] [µM] | GI50 [11] [µM] | GI50 [12]
CC(C)Cc1cc2c(cc1O)CCC1C2CC[C@@]2(C)C1CC[C@@H]2O (some centres undefined) | 36.1 | 26.6 | 19.6 | 20 | 34.2 | 21 | 39.4 | 15.7 | 28.8 | 21.9 | 19.8 | 23.4 | 35.1 |  |  |  |  |  | 
CC1=CC(=O)CC(C)(C)C1/C=C/C(C)=C/C=C/C(C)=C/C=C/C=C(C)/C=C/C=C(C)/C=C/C1=C(C)CC(O)CC1(C)C (centres undefined) | 99.1 | 70.9 | 27.1 | > 100 | > 100 | > 100 | > 100 | > 100 | > 100 |  | 4.52 | > 100 | > 100 |  |  |  |  |  | 
CC1CCC2(CC1)NC1=C(CC(C)CC1)C1=C2CC(C)CC1 (centres undefined) | 45.1 | 39.4 | 42.9 | 53.9 | 57.9 | 47.9 |  | 57.8 | 35 |  | 55.8 | 78.6 | 72.9 |  |  |  |  |  | 
O=C(CNC(c1ccccc1)(c1ccccc1)c1ccccc1)NC1CCCCC1NC(=O)CNC(c1ccccc1)(c1ccccc1)c1ccccc1 (centres undefined) | > 100 | 78.7 | > 100 | > 100 | > 100 | > 100 | > 100 | > 100 | > 100 | > 100 | > 100 | > 100 | > 100 |  |  |  |  |  | 
COC1OC(COC(=O)c2cc(O)c(O)c(O)c2)C(OC(=O)c2cc(O)c(O)c(O)c2)C(OC(=O)c2cc(O)c(O)c(O)c2)C1OC(=O)c1cc(O)c(O)c(O)c1 (centres undefined) | > 100 | > 100 | 49.7 | > 100 | > 100 | > 100 | > 100 | > 100 | > 100 | > 100 | 36 | > 100 | > 100 |  |  |  |  |  | 
FC(F)(Sc1ncc[nH]1)c1nc2ccccc2o1 | > 100 | > 100 | > 100 | > 100 | > 100 | > 100 | > 100 | > 100 | > 100 | > 100 | > 100 | > 100 | > 100 |  |  |  |  |  | 
C[C@@H](NC(=O)c1ccc(CNC(=O)/C=C/c2cccc(Oc3ccccc3)c2)cc1)c1ccccc1 | > 100 | > 100 | > 100 | > 100 | > 100 | > 100 | 78 | > 100 | > 100 | > 100 | > 100 | > 100 | > 100 |  |  |  |  |  | 
Cc1ccc2nc(C=Nc3ccc(Cl)cc3)cc(C)c2c1 | 6.62 | 81 | > 39.5 | 27.3 | > 100 | > 76.5 | 59.2 | > 100 | 36.4 | 29.4 | 11.6 | 48.1 | 36.5 |  |  |  |  |  | 
c1ccc2c(c1)CCc1[nH]c3c(c1-2)-c1ccccc1CC3 | > 100 | > 100 | > 100 | > 100 | > 100 | > 100 | > 100 | > 100 | > 100 | > 100 | > 100 | > 100 | > 100 |  |  |  |  |  | 
OCCOc1ccccc2cccc1-2 | > 100 | > 100 | > 100 | > 100 | > 100 | > 100 | > 100 | > 100 | > 100 | > 100 | > 100 | > 100 | > 100 |  |  |  |  |  | 
O=c1c2cc(Cl)cc(Cl)c2oc2nc3n(c(=O)c12)CCCS3 | > 100 | > 100 | > 100 | > 100 | > 100 | > 100 | > 100 | > 100 | > 100 | > 100 | > 100 | > 100 | > 100 |  |  |  |  |  | 
CC(C)(C)c1cc2c(O)c(c1)Cc1cc(C(C)(C)C)cc(c1O)Cc1cc(C(C)(C)C)cc(c1O)Cc1cc(C(C)(C)C)cc(c1O)Cc1cc(C(C)(C)C)cc(c1O)Cc1cc(C(C)(C)C)cc(c1O)Cc1cc(C(C)(C)C)cc(c1O)Cc1cc(C(C)(C)C)cc(c1O)C2 | > 50 | > 50 | > 50 | > 50 | > 50 | > 50 | > 50 | > 50 | > 50 | > 50 | > 50 | > 50 | > 50 |  |  |  |  |  | 
CSc1ncc2c(n1)sc1c(=O)n(-c3ccccc3)cnc12 | > 100 | > 100 | > 100 | > 100 | > 100 | > 100 | > 100 | > 100 | > 100 | > 100 | > 100 | > 100 | > 100 |  |  |  |  |  | 
COC(=O)C1=C(C(=O)OC)SC2(S1)C(C(=O)OC)=C(C(=O)OC)Sc1c2ssc1=Nc1ccc(Cl)cc1 | 1.02 | 1.93 | 5.78 | 2.17 | 2.81 | 1.71 |  | 1.36 | 3.66 | 1.8 | 1.73 | 3.45 | 2.3 |  |  |  |  |  | 
O=c1[nH]c(=O)n(C2OC(CO)C(O)C2O)cc1Oc1ccccc1 (centres undefined) | > 100 | > 100 | > 100 | > 100 | > 100 | > 100 | > 100 | > 100 | > 100 | > 100 | > 100 | > 100 | > 100 |  |  |  |  |  | 
O=C(CCCl)NNC1=NCCCN1 | > 100 | > 100 | > 100 | > 100 | > 100 | > 100 | > 100 | > 100 | > 100 | > 100 | > 100 | > 100 | > 100 |  |  |  |  |  | 
COc1ccc2nc3ccc(OC)cc3c(SCc3ccccc3)c2c1 | > 100 | > 100 | > 100 | > 100 | > 100 | > 100 | > 100 | > 100 | > 100 | > 100 | > 100 | > 100 | > 100 |  |  |  |  |  | 

SMILES | TGI [1] [µM] | TGI [2] [µM] | TGI [3] [µM] | TGI [4] [µM] | TGI [5] [µM] | TGI [6] [µM] | TGI [7] [µM] | TGI [8] [µM] | TGI [9] [µM] | TGI [10] [µM] | TGI [11] [µM] | TGI [12] [µM] | TGI [13] [µM] | GI50 [3] | GI50 [7] | GI50 [8] [µM] | GI50 [9] [µM] | GI50 [11] [µM] | GI50 [12]
COC(=O)/C=C/C1(O)C=CC(=O)C=C1 | 21 | > 32.1 | > 100 | 5.37 | 12 | 9.53 | 5.84 | 19.1 | > 19.8 | 3.32 | 10.7 | > 20.8 | 13.6 |  |  |  |  |  | 
C=C(CN1CC2C[C@](C(=O)OC)(c3cc4ccccc4[nH]3)C1C(OC)C2OC)S(=O)(=O)c1ccccc1 (some centres undefined) | 3.73 | 8.33 | 10.6 | 10.9 | 13.1 | 13 | 15.8 | 12.3 | 25.5 | 11.3 | 5.91 | 28.2 | 8.5 |  |  |  |  |  | 
O=C1CC(=O)NC(=NNS(=O)(=O)c2ccccc2)N1 | > 100 | > 100 | > 100 | > 100 | > 100 | > 100 | > 100 | > 100 | > 100 | > 100 | > 100 | > 100 | > 100 |  |  |  |  |  | 
Cc1nnc(N)nc1/C=C/c1c(O)ccc2ccccc12 | 45.2 | 86.9 | > 100 | > 100 | 78.7 | 64.1 | 96.9 | 35.5 | > 100 | > 100 | > 100 | > 100 | > 100 |  |  |  |  |  | 
CSc1ccc(/C=C2\N=C(c3ccccc3)N(c3nc4cc(C)c(C)cc4s3)C2=O)cc1 | 82.4 | 73.3 | > 100 | > 100 | 67.9 | 49.3 | > 100 | 34.1 | > 100 | 72.4 | 54.2 | > 100 | > 100 |  |  |  |  |  | 
COc1cccc(N(CN2C(=O)CCC2C(=O)O)C(C)=O)c1 (centres undefined) | > 100 | > 100 | > 100 | > 100 | > 100 | > 100 | > 100 | > 100 | > 100 | > 100 | > 100 | > 100 | > 100 |  |  |  |  |  | 
O=C1C=CC(=O)c2c1ccc1c3ccccc3n(Cc3cccc([N+](=O)[O-])c3)c21 | > 100 | 43.7 | > 59.9 | 61.1 | > 100 | > 69 | > 100 | > 100 | > 60.4 | 49.1 | > 32.6 | 67.7 | 60.1 |  |  |  |  |  | 
c1ccc2c(c1)NC1(N3CCCCC3)CCCCC21 (centres undefined) | > 100 | 84 | > 100 | > 100 | > 100 | > 100 | > 100 | > 100 | > 100 | > 100 | > 100 | 78.1 | > 100 |  |  |  |  |  | 
O=C(C/C(=N/O)c1cc(-c2ccccc2)no1)c1ccccc1 | > 100 | 58 | > 100 | 46.1 | > 100 | > 100 | 42.5 | > 100 | > 100 | > 100 | > 100 | > 100 | > 100 |  |  |  |  |  | 
O=C1C=C(OCCCCl)C(=O)c2c(O)ccc(O)c21 | 3.37 | 2.89 | 5.86 | 3.39 | 2.85 | 3.98 | 3.16 | 2.43 | 2.08 | 1.12 | 3.52 | 4.63 | 0.358 |  |  |  |  |  | 
COc1ccc2cc(-c3nc(N)nc(N4N=C(C)CC4(C)C)n3)c(=N)oc2c1 | 32.6 | 60.5 | 40.2 | 44.8 | 41.3 | 39.2 | 33.8 | 35.7 | 31.8 | 51.7 | 32.1 | 38.9 | 95.7 |  |  |  |  |  | 
Nc1nc2c(ncn2Cc2ccccc2CO)c(=O)[nH]1 | > 100 | > 100 | > 100 | > 100 | > 100 | > 100 | > 100 | > 100 | > 100 | > 100 | > 100 | > 100 | > 100 |  |  |  |  |  | 
Cc1cccc(-c2cc(=O)c3c(C)cc(C)nc3[nH]2)c1 | > 48.1 | > 100 | 32.3 | 31.8 | > 100 | > 100 | > 100 | > 100 | > 100 | > 100 | 9.3 | > 100 | > 100 |  |  |  |  |  | 
O=C(CSc1nc2ccc(I)cc2c(=O)n1Cc1ccccc1)NNC(=O)c1ccccc1 | > 100 | 28.2 | 15.5 | 28.2 | 40.5 | 24 | 20.8 | 19.2 | 36.6 | > 100 | 23.7 | 30.5 | 57.2 |  |  |  |  |  | 
O=C(O)CCCc1ccc2ccccc2c1 | > 100 | > 100 | > 100 | > 100 | > 100 | > 100 | > 100 | > 100 | > 100 | > 100 | > 100 | > 100 | > 100 |  |  |  |  |  | 
CN1CCN(c2ccc3nc(-c4ccc5nc(-c6ccc(O)cc6)[nH]c5c4)[nH]c3c2)CC1 | 1080 | 169 | 470 | 639 | 679 | 1150 | 717 | 578 | 92.3 | 464 | 2000 | 153 | 188 | 12.7 µM and 6.04 µM | 28.6 µM and 45.4 µM | 198 | 18.8 | 4.53 | 4.32 µM and 14.2 µM
CCOC(=O)C(=O)/C(=C/N1C(=O)CC(=O)NC1=S)C(=O)OCC | > 100 | > 92.9 | > 100 | > 100 | > 100 | > 100 | > 100 | > 100 | > 100 | > 100 | > 100 | > 100 | > 100 |  |  |  |  |  | 
